Measured values from patent US8563714B2, “Bridged spiro [2.4] heptane derivatives as ALX receptor and/or FPRL2 agonists” (Actelion Pharmaceuticals Ltd., priority 2009, dated 2013).

Key:
human ALX receptor = molecular target: T1, human ALX receptor (Homo sapiens, UniProt P25090); experiment: Intracellular calcium measurements (FLIPR), agonistic activity in HEK293-hALXR-Gα16 cells; assay type: cell-based; settings: Fluo-4 calcium FLIPR, normalized to WKYMVm 10 nM
T1 construct: expressed in transfected cells; host or cells: HEK293 (HEK293-hALXR-Gα16)
T1 sequence (P25090 1-351): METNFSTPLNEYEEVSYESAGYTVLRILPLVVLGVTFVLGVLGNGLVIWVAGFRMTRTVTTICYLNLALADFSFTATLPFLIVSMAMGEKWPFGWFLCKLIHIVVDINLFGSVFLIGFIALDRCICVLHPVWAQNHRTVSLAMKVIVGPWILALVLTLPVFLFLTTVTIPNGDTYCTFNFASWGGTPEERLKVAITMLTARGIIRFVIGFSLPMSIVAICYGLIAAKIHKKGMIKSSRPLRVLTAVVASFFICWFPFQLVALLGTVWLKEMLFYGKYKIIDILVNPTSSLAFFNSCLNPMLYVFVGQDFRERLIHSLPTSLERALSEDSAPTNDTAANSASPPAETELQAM
Summary of the method: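 Agonist-induced calcium flux was recorded by FLIPR (488/540 nm) in HEK293-hALXR-Gα16 cells pre-loaded with Fluo-4 AM (1 μM, 60 min, 37°C). Peak signal above baseline, after subtracting buffer addition, was expressed relative to WKYMVm at 10 nM final.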

human FPRL2 = molecular target: T2, human FPRL2 (Homo sapiens, UniProt P25089); experiment: Intracellular calcium measurements (FLIPR), agonistic activity in HEK293-hFPRL2-Gα16 cells; assay type: cell-based; settings: Fluo-4 calcium FLIPR, normalized to GLY14-Humanin 100 nM
T2 construct: expressed in transfected cells; host or cells: HEK293 (HEK293-hFPRL2-Gα16)
T2 sequence (P25089 1-353): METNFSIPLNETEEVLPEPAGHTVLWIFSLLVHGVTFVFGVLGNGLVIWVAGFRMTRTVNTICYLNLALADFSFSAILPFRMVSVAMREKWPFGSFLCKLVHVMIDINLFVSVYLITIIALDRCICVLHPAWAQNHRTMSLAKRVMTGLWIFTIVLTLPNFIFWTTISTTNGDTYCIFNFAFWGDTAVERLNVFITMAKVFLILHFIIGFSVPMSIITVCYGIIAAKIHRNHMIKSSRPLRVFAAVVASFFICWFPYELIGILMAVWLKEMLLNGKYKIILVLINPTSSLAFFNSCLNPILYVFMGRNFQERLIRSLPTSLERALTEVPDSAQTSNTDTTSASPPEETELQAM
Summary of the method: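 Peak values after baseline subtraction are expressed relative to 100 nM Gly14-Humanin; compounds diluted in assay buffer from 10 mM DMSO stocks.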

O=C(CCc1c[nH]c2ccccc12)NC[C@H]1[C@H](C(=O)Nc2ccc(Br)cc2)[C@@H]2C=C[C@H]1C21CC1 (racemic) [Example 186, (5R*)—N^5-(4-Bromo-phenyl)-(6R*)-6-[(3-1H-indol-3-yl-propionylamino)-methyl]-(4S*,7R*)-[4,7-ethenylene-spiro[2.4]heptane]-5-carboxamide]
EC50 (human ALX receptor): 463 nM | EC50 (human FPRL2): 8960 nM

CCCC(=O)NC[C@H]1[C@H](C(=O)Nc2ccc(Br)cc2)[C@@H]2C=C[C@H]1C21CC1 (racemic) [Example 187, (5R*)—N^5-(4-Bromo-phenyl)-(6R*)-6-[(butanoylamino)-methyl]-(4S*,7R*)-[4,7-ethenylene-spiro[2.4]heptane]-5-carboxamide]
EC50 (human ALX receptor): 505 nM | EC50 (human FPRL2): 4270 nM

O=C(CCc1ccc(F)cc1)NC[C@H]1[C@H](C(=O)Nc2ccc(Br)cc2)[C@@H]2C=C[C@H]1C21CC1 (racemic) [Example 188, (5R*)—N^5-(4-Bromo-phenyl)-(6R*)-6-[(3-(4-fluoro-phenyl)-propionylamino)-methyl]-(4S*,7R*)-[4,7-ethenylene-spiro[2.4]heptane]-5-carboxamide]
EC50 (human ALX receptor): 529 nM | EC50 (human FPRL2): 1920 nM

O=C(C=Cc1ccccc1)NC[C@H]1[C@H](C(=O)Nc2ccc(Br)cc2)[C@@H]2C=C[C@H]1C21CC1 (racemic) [Example 189, (5R*)—N^5-(4-Bromo-phenyl)-(6R*)-6-[(3-phenyl-acryloylamino)-methyl]-(4S*,7R*)-[4,7-ethenylene-spiro[2.4]heptane]-5-carboxamide]
EC50 (human ALX receptor): 697 nM | EC50 (human FPRL2): 3240 nM

Cc1nn(C)c(Cl)c1C(=O)NC[C@H]1[C@H](C(=O)Nc2ccc(Br)cc2)[C@@H]2C=C[C@H]1C21CC1 (racemic) [Example 190, (5R*)—N^5-(4-Bromo-phenyl)-(6R*)-6-{[(5-chloro-1,3-dimethyl-1H-pyrazole-4-carbonyl)-amino]-methyl}-(4S*,7R*)-[4,7-ethenylene-spiro[2.4]heptane]-5-carboxamide]
EC50 (human ALX receptor): 963 nM | EC50 (human FPRL2): 1700 nM

CC(=O)c1csc(CNC(=O)[C@H]2[C@H](C(=O)NCCCCN3CCCC3)[C@H]3C=C[C@@H]2C32CC2)n1 (racemic) [Example 191, (5R*)—N^5-(4-Acetyl-thiazol-2-yl-methyl)-(6R*)—N^6-(4-pyrrolidin-1-yl-butyl)-(4S*,7R*)-[4,7-ethenylene-spiro[2.4]heptane]-5,6-dicarboxamide]
EC50 (human ALX receptor): 140 nM | EC50 (human FPRL2): 826 nM

CC(=O)c1ccc(NC(=O)[C@H]2[C@H](C(=O)NCCCCN3CCCC3)[C@H]3C=C[C@@H]2C32CC2)cc1 (racemic) [Example 192, (5R*)—N^5-(4-Acetyl-phenyl)-(6R*)—N^6-(4-pyrrolidin-1-yl-butyl)-(4S*,7R*)-[4,7-ethenylene-spiro[2.4]heptane]-5,6-dicarboxamide]
EC50 (human ALX receptor): 23 nM | EC50 (human FPRL2): 139 nM

Cc1cnc(NC(=O)[C@H]2[C@H](C(=O)NCCCCN3CCCC3)[C@H]3C=C[C@@H]2C32CC2)s1 (racemic) [Example 193, (5R*)—N^5-(5-Methyl-thiazol-2-yl)-(6R*)—N^6-(4-pyrrolidin-1-yl-butyl)-(4S*,7R*)-[4,7-ethenylene-spiro[2.4]heptane]-5,6-dicarboxamide]
EC50 (human ALX receptor): 463 nM | EC50 (human FPRL2): 355 nM

CC(=O)c1ccc(CNC(=O)[C@H]2[C@H](C(=O)NCCCCN3CCCC3)[C@H]3C=C[C@@H]2C32CC2)s1 (racemic) [Example 194, (5R*)—N^5-(5-Acetyl-thiophen-2-yl-methyl)-(6R*)—N^6-(4-pyrrolidin-1-yl-butyl)-(4S*,7R*)-[4,7-ethenylene-spiro[2.4]heptane]-5,6-dicarboxamide]
EC50 (human ALX receptor): 223 nM | EC50 (human FPRL2): 436 nM

O=C(NCCCCN1CCCC1)[C@H]1[C@H](C(=O)Nc2ccc(C(F)(F)F)cc2)[C@@H]2C=C[C@H]1C21CC1 (racemic) [Example 197, (5R*)—N^5-(4-Trifluoromethyl-phenyl)-(6R*)—N^6-(4-pyrrolidin-1-yl-butyl)-(4S*,7R*)-[4,7-ethenylene-spiro[2.4]heptane]-5,6-dicarboxamide]
EC50 (human ALX receptor): 5.4 nM | EC50 (human FPRL2): 105 nM

CC(=O)c1ncc(CNC(=O)[C@H]2[C@H](C(=O)NCCCCN3CCCC3)[C@H]3C=C[C@@H]2C32CC2)o1 (racemic) [Example 198, (5R*)—N^5-(2-Acetyl-oxazol-5-yl-methyl)-(6R*)—N^6-(4-pyrrolidin-1-yl-butyl)-(4S*,7R*)-[4,7-ethenylene-spiro[2.4]heptane]-5,6-dicarboxamide]
EC50 (human ALX receptor): 92 nM | EC50 (human FPRL2): 462 nM

O=C(NCCCCN1CCCC1)[C@H]1[C@H](C(=O)NCc2ccc(I)cc2)[C@@H]2C=C[C@H]1C21CC1 (racemic) [Example 200, (5R*)—N^5-(4-Iodophenyl-methyl)-(6R*)—N^6-(4-pyrrolidin-1-yl-butyl)-(4S*,7R*)-[4,7-ethenylene-spiro[2.4]heptane]-5,6-dicarboxamide]
EC50 (human ALX receptor): 42 nM | EC50 (human FPRL2): 236 nM

CC(C)Cc1cc(CNC(=O)[C@H]2[C@H](C(=O)NCCCCN3CCCC3)[C@H]3C=C[C@@H]2C32CC2)no1 (racemic) [Example 201, (5R*)—N^5-(5-(iso-Butyl)-isoxazol-3-yl-methyl)-(6R*)—N^6-(4-pyrrolidin-1-yl-butyl)-(4S*,7R*)-[4,7-ethenylene-spiro[2.4]heptane]-5,6-dicarboxamide]
EC50 (human ALX receptor): 93 nM | EC50 (human FPRL2): 1440 nM

O=C(NCCCCN1CCCC1)[C@H]1[C@H](C(=O)NCc2csc(Br)c2)[C@@H]2C=C[C@H]1C21CC1 (racemic) [Example 202, (5R*)—N^5-(2-Bromo-thiophen-4-yl-methyl)-(6R*)—N^6-(4-pyrrolidin-1-yl-butyl)-(4S*,7R*)-[4,7-ethenylene-spiro[2.4]heptane]-5,6-dicarboxamide]
EC50 (human ALX receptor): 33 nM | EC50 (human FPRL2): 75 nM

O=C(NCCCCN1CCCC1)[C@H]1[C@H](C(=O)NCc2ccc(Br)cc2F)[C@@H]2C=C[C@H]1C21CC1 (racemic) [Example 203, (5R*)—N^5-(2-Fluoro-4-bromophenyl-methyl)-(6R*)—N^6-(4-pyrrolidin-1-yl-butyl)-(4S*,7R*)-[4,7-ethenylene-spiro[2.4]heptane]-5,6-dicarboxamide]
EC50 (human ALX receptor): 24 nM | EC50 (human FPRL2): 200 nM

CN(C)C(=O)CCNC(=O)[C@H]1[C@H](C(=O)Nc2ccc(Br)cc2)[C@@H]2C=C[C@H]1C21CC1 (racemic) [Example 204, (5R*)—N^5-(4-Bromophenyl)-(6R*)—N^6-(3-dimethylamino-3-oxopropyl)-(4S*,7R*)-[4,7-ethenylene-spiro[2.4]heptane]-5,6-dicarboxamide]
EC50 (human ALX receptor): 3.4 nM | EC50 (human FPRL2): 2080 nM

NC(=O)CCCNC(=O)[C@H]1[C@H](C(=O)Nc2ccc(Br)cc2)[C@@H]2C=C[C@H]1C21CC1 (racemic) [Example 205, (5R*)—N^5-(4-Bromophenyl)-(6R*)—N^6-(4-amino-4-oxobutyl)-(4S*,7R*)-[4,7-ethenylene-spiro[2.4]heptane]-5,6-dicarboxamide]
EC50 (human ALX receptor): 7.3 nM | EC50 (human FPRL2): 4780 nM

O=C(NCCC(=O)N1CCCC1)[C@H]1[C@H](C(=O)Nc2ccc(Br)cc2)[C@@H]2C=C[C@H]1C21CC1 (racemic) [Example 206, (5R*)—N^5-(4-Bromophenyl)-(6R*)—N^6-(3-pyrrolidino-3-oxopropyl)-(4S*,7R*)-[4,7-ethenylene-spiro[2.4]heptane]-5,6-dicarboxamide]
EC50 (human ALX receptor): 31 nM | EC50 (human FPRL2): 2980 nM

NC(=O)CNC(=O)[C@H]1[C@H](C(=O)Nc2ccc(Br)cc2)[C@@H]2C=C[C@H]1C21CC1 (racemic) [Example 207, (5R*)—N^5-(4-Bromophenyl)-(6R*)—N^6-(2-amino-2-oxoethyl)-(4S*,7R*)-[4,7-ethenylene-spiro[2.4]heptane]-5,6-dicarboxamide]
EC50 (human ALX receptor): 6.5 nM | EC50 (human FPRL2): 7430 nM

CNC(=O)CCNC(=O)[C@H]1[C@H](C(=O)Nc2ccc(Br)cc2)[C@@H]2C=C[C@H]1C21CC1 (racemic) [Example 223, (5R*)—N^5-(4-Bromophenyl)-(6R*)—N^6-(3-methylamino-3-oxopropyl)-(4S*,7R*)-[4,7-ethenylene-spiro[2.4]heptane]-5,6-dicarboxamide]
EC50 (human ALX receptor): 3.2 nM | EC50 (human FPRL2): 1210 nM

CC(=O)c1ncc(CNC(=O)[C@H]2[C@H](C(=O)NCCCCN3CCCC3)[C@H]3C=C[C@@H]2C32CC2)s1 (racemic) [Example 224, (5R*)—N^5-(2-Acetyl-thiazol-5-yl-methyl)-(6R*)—N^6-(4-pyrrolidin-1-yl-butyl)-(4S*,7R*)-[4,7-ethenylene-spiro[2.4]heptane]-5,6-dicarboxamide]
EC50 (human ALX receptor): 994 nM | EC50 (human FPRL2): 1860 nM
